Common to all, as to type: functional
Assay [1] deals with Mycobacterium tuberculosis. Briefly: Antituberculosis activity against Mycobacterium tuberculosis H37Rv by agar dilution method. In general terms: In agar dilution the substance is mixed into plates at graded concentrations.
For assay [2], the system named is Mycobacterium tuberculosis. Briefly: Ratio of MIC for ethambutol to compound for Mycobacterium tuberculosis H37Rv.
Assay [3] deals with Mycobacterium tuberculosis. Put plainly: Ratio of MIC for ciprofloxacin to compound for Mycobacterium tuberculosis H37Rv.

Converted amounts (≈) assume the structure as drawn.

For the compound `COc1ccc(/C=C2\CN(C)CC3=C2N=C(S)NC3c2ccc(OC)cc2)cc1` (stereo not given), the MIC in assay [1] came to 61.4 µM (≈ 25 µg/mL).

On to `COc1ccccc1/C=C1\CN(C)CC2=C1NC(=S)NC2c1ccccc1OC` (stereo not given), for which the MIC in assay [1] is 61.4 µM (≈ 25 µg/mL). Regarding `CN1CC2=C(NC(=S)NC2c2cccc3ccccc23)/C(=C/c2cccc3ccccc23)C1` (stereo not given), the MIC in assay [1] stood at 55.9 µM (≈ 25 µg/mL). The same measure, in the same setting: to `COc1ccc(/C=C2\CN(Cc3ccccc3)CC3=C2NC(=S)NC3c2ccc(OC)cc2)cc1` (stereo not given) belongs 51.7 µM (≈ 25 µg/mL).

In assay [1], `CN1CC2=C(NC(=S)NC2c2ccc3ccccc3c2)/C(=C/c2ccc3ccccc3c2)C1` (stereo not given) returned an MIC of 55.9 µM (≈ 25 µg/mL). Still for that read-out and setting: for `Cc1ccccc1/C=C1\CN(Cc2ccccc2)CC2=C1NC(=S)NC2c1ccccc1C` (stereo not given) the value was 55.4 µM (≈ 25 µg/mL); for `Cc1ccccc1/C=C1\CN(C)CC2=C1NC(=S)NC2c1ccccc1C` (stereo not given), 66.6 µM (≈ 25 µg/mL); for `Cc1ccc(/C=C2\CN(Cc3ccccc3)CC3=C2NC(=S)NC3c2ccc(C)cc2)cc1` (stereo not given), 55.4 µM (≈ 25 µg/mL).

`CC[C@@H](CO)NCCN[C@@H](CC)CO` [ETHAMBUTOL] yielded an MIC in assay [1] of 7.6 µM (≈ 1.55 µg/mL). With `COc1ccc(/C=C2\CN(C)CC3=C2NC(=S)NC3c2ccc(OC)c(OC)c2)cc1OC` (stereo not given), in assay [1], 53.5 µM (≈ 25 µg/mL) was the least that counted as inhibitory (MIC). Take `CN1CC2=C(NC(=S)NC2c2c(Cl)cccc2Cl)/C(=C/c2c(Cl)cccc2Cl)C1` (stereo not given): 5.6 µM (≈ 2.72 µg/mL) was the least that counted as inhibitory in assay [1] (MIC). The Ratio in assay [2] was found to be 1.4.

On to `NNC(=O)c1ccncc1` [ISONIAZID], for which inhibition of growth in assay [1] (MIC) required 0.4 µM (≈ 0.0549 µg/mL). The same measure, in the same setting: to `Cc1ccc(/C=C2\CN(C)CC3=C2N=C(S)NC3c2ccc(C)cc2)cc1` (stereo not given) belongs 66.6 µM (≈ 25 µg/mL); to `COc1ccc(OC)c(/C=C2\CN(C)CC3=C2NC(=S)NC3c2cc(OC)ccc2OC)c1` (stereo not given), 53.5 µM (≈ 25 µg/mL); to `CN1CC2=C(NC(=S)NC2c2ccc(Cl)cc2Cl)/C(=C/c2ccc(Cl)cc2Cl)C1` (stereo not given), 12.9 µM (≈ 6.26 µg/mL). `CC(C)c1ccc(/C=C2\CN(C)CC3=C2NC(=S)NC3c2ccc(C(C)C)cc2)cc1` (stereo not given) gave an MIC in assay [1] of 57.9 µM (≈ 25 µg/mL).

For the compound `CC(C)c1ccc(/C=C2\CN(Cc3ccccc3)CC3=C2NC(=S)NC3c2ccc(C(C)C)cc2)cc1` (stereo not given), the lowest concentration to inhibit growth in assay [1] (MIC) was 24.6 µM (≈ 12.5 µg/mL). The compound `CN1CC2=C(NC(=S)NC2c2cccc(Br)c2)/C(=C/c2cccc(Br)c2)C1` (stereo not given) came in with an MIC in assay [1] of 24.7 µM (≈ 12.5 µg/mL).

With `CN1CC2=C(NC(=S)NC2c2cccc(F)c2)/C(=C/c2cccc(F)c2)C1` (stereo not given), the MIC in assay [1] came to 16.3 µM (≈ 6.25 µg/mL). Take `CN1CC2=C(N=C(S)NC2c2ccccc2Cl)/C(=C/c2ccccc2Cl)C1` (stereo not given): the lowest concentration to inhibit growth in assay [1] (MIC) was 30 µM (≈ 12.5 µg/mL). Consider `CN1CC2=C(NC(=S)NC2c2ccc(Br)cc2)/C(=C/c2ccc(Br)cc2)C1` (stereo not given), for which, in assay [1], the MIC was determined as 24.7 µM (≈ 12.5 µg/mL). Still for that read-out and setting: for `S=C1NC2=C(CN(Cc3ccccc3)C/C2=C\c2ccccc2Br)C(c2ccccc2Br)N1` (stereo not given) the value was 21.5 µM (≈ 12.5 µg/mL). In the case of `Fc1ccc(/C=C2\CN(Cc3ccccc3)CC3=C2NC(=S)NC3c2ccc(F)cc2)cc1` (stereo not given), in assay [1], the MIC was 3.4 µM (≈ 1.56 µg/mL). In addition, the figures for the Ratio in assay [2] and in assay [3] were 2.2 and 1.4, respectively. The compound `CN1CC2=C(NC(=S)NC2c2ccc(F)cc2)/C(=C/c2ccc(F)cc2)C1` (stereo not given) gave an MIC in assay [1] of 32.6 µM (≈ 12.5 µg/mL). Same read-out and setting: for `S=C1NC2=C(CN(Cc3ccccc3)C/C2=C\c2ccccc2Cl)C(c2ccccc2Cl)N1` (stereo not given) the value was 25.4 µM (≈ 12.5 µg/mL); for `CO[C@H]1/C=C/O[C@@]2(C)Oc3c(C)c(O)c4c(O)c(c(/C=N/N5CCN(C)CC5)c(O)c4c3C2=O)NC(=O)/C(C)=C\C=C\[C@H](C)[C@H](O)[C@@H](C)[C@@H](O)[C@@H](C)[C@H](OC(C)=O)[C@@H]1C` [RIFAMPIN], 0.1 µM (≈ 0.0823 µg/mL); for `S=C1NC2=C(CN(Cc3ccccc3)C/C2=C\c2ccccc2)C(c2ccccc2)N1` (stereo not given), 59 µM (≈ 25 µg/mL).

Turning to `S=C1NC2=C(CN(Cc3ccccc3)C/C2=C\c2ccc(Cl)cc2)C(c2ccc(Cl)cc2)N1` (stereo not given), it took 25.4 µM (≈ 12.5 µg/mL) to inhibit growth in assay [1] (MIC). Consider `COc1ccc(/C=C2\CN(Cc3ccccc3)CC3=C2NC(=S)NC3c2ccc(OC)c(OC)c2)cc1OC` (stereo not given), for which the MIC in assay [1] was 46 µM (≈ 25 µg/mL). Regarding `CN1CC2=C(N=C(S)NC2c2cccs2)/C(=C/c2cccs2)C1` (stereo not given), the minimum inhibitory concentration (MIC) in assay [1] came to 69.5 µM (≈ 25 µg/mL).

In assay [1], `CN1CC2=C(NC(=S)NC2c2ccc(N(C)C)cc2)/C(=C/c2ccc(N(C)C)cc2)C1` (stereo not given) showed an MIC of 57.7 µM (≈ 25 µg/mL). The same measure, in the same setting: for `S=C1NC2=C(CN(Cc3ccccc3)C/C2=C\c2cccc3ccccc23)C(c2cccc3ccccc23)N1` (stereo not given) the value was 47.7 µM (≈ 25 µg/mL). Consider `Fc1cccc(/C=C2\CN(Cc3ccccc3)CC3=C2NC(=S)NC3c2cccc(F)c2)c1` (stereo not given), for which the MIC in assay [1] came to 6.8 µM (≈ 3.13 µg/mL). The Ratio in assay [2] worked out at 1.1. In assay [1], `S=C1NC2=C(CN(Cc3ccccc3)C/C2=C\c2ccc(Cl)cc2Cl)C(c2ccc(Cl)cc2Cl)N1` (stereo not given) had an MIC of 2.8 µM (≈ 1.57 µg/mL). In addition, the Ratio in assay [2] is 2.7; in assay [3], 1.7. Turning to `CN1CC2=C(N=C(S)NC2c2ccc(Cl)cc2)/C(=C/c2ccc(Cl)cc2)C1` (stereo not given), in assay [1], inhibition of growth (MIC) required 30 µM (≈ 12.5 µg/mL). Regarding `CN(C)c1ccc(/C=C2\CN(Cc3ccccc3)CC3=C2NC(=S)NC3c2ccc(N(C)C)cc2)cc1` (stereo not given), in assay [1], inhibition of growth (MIC) required 49.1 µM (≈ 25 µg/mL). Still for that read-out and setting: for `COc1ccc(OC)c(/C=C2\CN(Cc3ccccc3)CC3=C2NC(=S)NC3c2cc(OC)ccc2OC)c1` (stereo not given) the value was 46 µM (≈ 25 µg/mL); for `CN1CC2=C(N=C(S)NC2c2ccccc2)/C(=C/c2ccccc2)C1` (stereo not given), 71.9 µM (≈ 25 µg/mL); for `COc1cc(/C=C2\CN(Cc3ccccc3)CC3=C2NC(=S)NC3c2cc(OC)c(OC)c(OC)c2)cc(OC)c1OC` (stereo not given), 41.4 µM (≈ 25 µg/mL).

As usually defined, the MIC is the lowest concentration found to suppress growth.

Source of the values: ChEMBL document CHEMBL1770066, “A green expedient synthesis of pyridopyrimidine-2-thiones and their antitubercular activity” (2011).
